# Patent US12605383B2, “Methods of treating cancer” (priority 2020, dated 2026)
# Key:
# KRASG12C PDX models = conditions: Janes et al. 2018; cited from earlier work
# LLC cells = assay: Cell viability (CCK8) assay, LLC cells; assay type: cell-based, murine; conditions: LLC (KRASG12C mutant), 0.016 up to 7500 nM, 48 h
# AE17 cells = assay: Cell viability (CCK8) assay, AE17 cells; assay type: cell-based, murine; conditions: AE17 (KRASG12C mutant), 0.016 up to 7500 nM, 48 h
# H2122 cells = assay: Cell viability (CCK8) assay, H2122 cells; assay type: cell-based, human; conditions: H2122 (KRASG12C mutant), 0.016 up to 7500 nM, 48 h
# [1] = test system: viral replication of vvTD and vvTD-IL36γ; assay type: cell-based, vaccinia virus
# LLC s.c. tumor = assay: Subcutaneous LLC tumor model, tumor size and survival; assay type: in vivo, B6 mice
# AE17 s.c. tumor = assay: Subcutaneous AE17 tumor model, tumor size and survival; assay type: in vivo, B6 mice
# [2] = test system: LLC tumor microenvironment; assay: Flow cytometry of immune cells in LLC tumor tissues; assay type: in vivo, B6 mice; conditions: days 6 and 11
# [3] = test system: LLC tumor-specific T cells; assay: IFN-γ ELISpot assay of TILs from LLC tumors; assay type: in vivo, B6 mice; conditions: 2.0×10^4 CD90.2+ TILs, day 7, co-cultured 1:1 with irradiated LLC cells
# MC38 s.c. tumor = assay: Subcutaneous MC38 tumor model, tumor size and survival; conditions: for Median survival: MC38 s.c. tumor, FIG. 2F
smiles,measurement,setting,value
C=CC(=O)N1CCN(c2ncnc3c(F)c(-c4c(O)cccc4F)c(Cl)cc23)CC1 [ARS-1620],in vivo antitumor effect,KRASG12C PDX models,tumor regression
C=CC(=O)N1CCN(c2nc(OC[C@@H]3CCCN3C)nc3c2CCN(c2cccc4cccc(C)c24)C3)C[C@@H]1CC#N [MRTX1257],sensitivity of cancer cells to MRTX1257,LLC cells,highly sensitive
same,sensitivity of cancer cells to MRTX1257,AE17 cells,highly sensitive
same,sensitivity of cancer cells to MRTX1257,H2122 cells,more sensitive than A549 cells
same,effect on viral replication and accumulation of vvTD and vvTD-IL36γ,[1],small inhibitory effect
same,antitumor effect (tumor size),"LLC s.c. tumor; LLC model, MRTX1257 60 mg/kg oral, OVs 2.0e6 pfu/mouse intratumoral, FIG. 3A",significant antitumor effect
same,Median survival,"LLC s.c. tumor; LLC s.c. tumor, MRTX1257 60 mg/kg, FIG. 2D",36 days
same,Median survival,"LLC s.c. tumor; LLC s.c. tumor, MRTX1257 100 mg/kg, FIG. 2D",39.5 days
same,Median survival,"LLC s.c. tumor; LLC s.c. tumor, MRTX1257 200 mg/kg, FIG. 2D",45 days
same,inhibition of tumor growth,"LLC s.c. tumor; LLC tumor model, 60-200 mg/kg, FIG. 2A",good efficacy
same,Median survival,"LLC s.c. tumor; LLC tumor, OV i.t. single dose, MRTX1257 60 mg/kg oral daily for 3 weeks, FIG. 3B",39 days
same,Median survival,"LLC s.c. tumor; LLC tumor, combination with PD-1 blockade, FIG. 6E",39 days
same,Median survival,"AE17 s.c. tumor; AE17 s.c. tumor, MRTX1257 60 mg/kg, FIG. 2E",40.5 days
same,Median survival,"AE17 s.c. tumor; AE17 s.c. tumor, MRTX1257 100 mg/kg, FIG. 2E",40 days
same,Median survival,"AE17 s.c. tumor; AE17 s.c. tumor, MRTX1257 200 mg/kg, FIG. 2E",47 days
same,inhibition of tumor growth,"AE17 s.c. tumor; AE17 tumor model, 60-200 mg/kg, FIG. 2B",good efficacy
same,Median survival,"AE17 s.c. tumor; AE17 tumor, OV i.t. single dose, MRTX1257 60 mg/kg oral daily for 3 weeks, FIG. 3",49.5 days
same,CD8+ T cells in tumor tissue,[2],no reduction
same,number of IFN-γ ELISpot spots,[3],~180 spots
same,sensitivity of cancer cells to MRTX1257,"MC38 cells; MC38 (non-KRASG12C), 0.016 up to 7500 nM, 48 h",less sensitive
same,drug-mediated cytotoxicity over time,"MC38 cells; MC38, MRTX1257 at 100 nM, 24-72 h, versus LLC and AE17",much more resistant
same,Median survival,MC38 s.c. tumor; MRTX1257 60 mg/kg,24 days
same,Median survival,MC38 s.c. tumor; MRTX1257 100 mg/kg,24 days
same,Median survival,MC38 s.c. tumor; MRTX1257 200 mg/kg,22 days
same,inhibition of tumor growth,"MC38 s.c. tumor; MC38 tumor model, 60-200 mg/kg, FIG. 2C",no effect
